Measurements taken from patent publication US12077503B2, “Substituted cyclic amides and their use as herbicides” (FMC CORPORATION, priority 2015, dated 2024).

Tests used:
Assay type in all cases: in vivo
corn (Zea mays) = experiment: Test A postemergence; conditions: for Corn plant response rating: 125 g ai/ha, postemergence, visual injury rating on 0 to 100 scale (0 no effect, 100 complete control), approx. 10 d; for Plant response rating, Corn: Postemergence, 500 g ai/ha, 0 to 100 scale where 0 is no effect and 100 is complete control
Procedure, shortened: (§1)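 Visual injury scores from 0, no effect, to 100, complete control, were assigned versus untreated controls roughly 10 d after treatment in the greenhouse. Test chemicals, formulated with surfactant in a non-phytotoxic solvent, were applied to planted seeds as a preemergence soil spray or postemergence to one- to two-leaf plants 2 to 10 cm tall, in loam–sand soil.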

[1] = tested on: wheat (Triticum aestivum); experiment: Test A postemergence; conditions: for Wheat plant response rating: 125 g ai/ha, postemergence, visual injury rating on 0 to 100 scale (0 no effect, 100 complete control), approx. 10 d; for Plant response rating, Wheat: Postemergence, 500 g ai/ha, 0 to 100 scale where 0 is no effect and 100 is complete control
Procedure, shortened: as §1

[2] = tested on: ragweed (common ragweed, Ambrosia elatior); experiment: Test A postemergence; conditions: for Ragweed plant response rating: 125 g ai/ha, postemergence, visual injury rating on 0 to 100 scale (0 no effect, 100 complete control), approx. 10 d; for Plant response rating, Ragweed: Postemergence, 500 g ai/ha, 0 to 100 scale where 0 is no effect and 100 is complete control
Procedure, shortened: as §1

[3] = tested on: pigweed (Amaranthus retroflexus); experiment: Test A postemergence; conditions: for Pigweed plant response rating: 125 g ai/ha, postemergence, visual injury rating on 0 to 100 scale (0 no effect, 100 complete control), approx. 10 d; for Plant response rating, Pigweed: Postemergence, 500 g ai/ha, 0 to 100 scale where 0 is no effect and 100 is complete control
Procedure, shortened: as §1

[4] = tested on: blackgrass (Alopecurus myosuroides); experiment: Test A postemergence; conditions: for Blackgrass plant response rating: 125 g ai/ha, postemergence, visual injury rating on 0 to 100 scale (0 no effect, 100 complete control), approx. 10 d; for Plant response rating, Blackgrass: Postemergence, 500 g ai/ha, 0 to 100 scale where 0 is no effect and 100 is complete control
Procedure, shortened: as §1

Kochia (Kochia scoparia) [5] = experiment: Test A postemergence; conditions: for Kochia plant response rating: 125 g ai/ha, postemergence, visual injury rating on 0 to 100 scale (0 no effect, 100 complete control), approx. 10 d; for Plant response rating, Kochia: Postemergence, 500 g ai/ha, 0 to 100 scale where 0 is no effect and 100 is complete control
Procedure, shortened: as §1

[6] = tested on: barnyardgrass (Echinochloa crus-galli); experiment: Test A postemergence; conditions: for Barnyardgrass plant response rating: 125 g ai/ha, postemergence, visual injury rating on 0 to 100 scale (0 no effect, 100 complete control), approx. 10 d; for Plant response rating, Barnyardgrass: Postemergence, 500 g ai/ha, 0 to 100 scale where 0 is no effect and 100 is complete control
Procedure, shortened: as §1

[7] = tested on: Galium (catchweed bedstraw, Galium aparine); experiment: Test A postemergence; conditions: for Galium plant response rating: 125 g ai/ha, postemergence, visual injury rating on 0 to 100 scale (0 no effect, 100 complete control), approx. 10 d; for Plant response rating, Galium: Postemergence, 500 g ai/ha, 0 to 100 scale where 0 is no effect and 100 is complete control
Procedure, shortened: as §1

[8] = tested on: ryegrass, Italian (Italian ryegrass, Lolium multiflorum); experiment: Test A postemergence; conditions: for Ryegrass, Italian plant response rating: 125 g ai/ha, postemergence, visual injury rating on 0 to 100 scale (0 no effect, 100 complete control), approx. 10 d; for Plant response rating, Ryegrass, Italian: Postemergence, 500 g ai/ha, 0 to 100 scale where 0 is no effect and 100 is complete control
Procedure, shortened: as §1

[9] = tested on: giant foxtail (Setaria faberii); experiment: Test A postemergence; conditions: for Foxtail, Giant plant response rating: 125 g ai/ha, postemergence, visual injury rating on 0 to 100 scale (0 no effect, 100 complete control), approx. 10 d; for Plant response rating, Foxtail, Giant: Postemergence, 500 g ai/ha, 0 to 100 scale where 0 is no effect and 100 is complete control
Procedure, shortened: as §1

[10] = tested on: barnyardgrass (Echinochloa crus-galli); experiment: Test B flooded paddy test; conditions: Flood, 250 g ai/ha; 0 to 100 scale where 0 is no effect and 100 is complete control; 13 to 15 d
Procedure, shortened: (§2)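 Compound goes directly into floodwater once pots are flooded 3 cm above soil, targeting plants at two leaves; the water depth is then held for the test duration. Plants sit 13–15 d in a greenhouse and are rated visually, 100 denoting complete control.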

rice (Oryra sativa) = experiment: Test B flooded paddy test; conditions: Flood, 250 g ai/ha; 0 to 100 scale where 0 is no effect and 100 is complete control; 13 to 15 d
Procedure, shortened: as §2

[11] = tested on: ducksalad (Heteranthera limosa); experiment: Test B flooded paddy test; conditions: Flood, 250 g ai/ha; 0 to 100 scale where 0 is no effect and 100 is complete control; 13 to 15 d
Procedure, shortened: as §2

[12] = tested on: sedge, umbrella (small-flower umbrella sedge, Cyperus difformis); experiment: Test B flooded paddy test; conditions: Flood, 250 g ai/ha; 0 to 100 scale where 0 is no effect and 100 is complete control; 13 to 15 d
Procedure, shortened: as §2

[13] = tested on: ragweed (common ragweed, Ambrosia elatior); experiment: Test A preemergence; conditions: Preemergence; for Plant response rating, Ragweed: 125 g ai/ha, visual injury after approximately 10 d, 0 to 100 scale where 0 is no effect and 100 is complete control; for Ragweed plant response rating (0 to 100 scale, 0 is no effect, 100 is complete control): 500 g ai/ha, visual injury approx. 10 d
Procedure, shortened: as §1

[14] = tested on: pigweed (Amaranthus retroflexus); experiment: Test A preemergence; conditions: Preemergence; for Plant response rating, Pigweed: 125 g ai/ha, visual injury after approximately 10 d, 0 to 100 scale where 0 is no effect and 100 is complete control; for Pigweed plant response rating (0 to 100 scale, 0 is no effect, 100 is complete control): 500 g ai/ha, visual injury approx. 10 d
Kochia (Kochia scoparia) [15] = experiment: Test A preemergence; conditions: Preemergence; for Plant response rating, Kochia: 125 g ai/ha, visual injury after approximately 10 d, 0 to 100 scale where 0 is no effect and 100 is complete control; for Kochia plant response rating (0 to 100 scale, 0 is no effect, 100 is complete control): 500 g ai/ha, visual injury approx. 10 d
Procedure, shortened: as §1

[16] = tested on: barnyardgrass (Echinochloa crus-galli); experiment: Test A preemergence; conditions: Preemergence; for Plant response rating, Barnyardgrass: 125 g ai/ha, visual injury after approximately 10 d, 0 to 100 scale where 0 is no effect and 100 is complete control; for Barnyardgrass plant response rating (0 to 100 scale, 0 is no effect, 100 is complete control): 500 g ai/ha, visual injury approx. 10 d
Procedure, shortened: as §1

[17] = tested on: ryegrass, Italian (Italian ryegrass, Lolium multiflorum); experiment: Test A preemergence; conditions: Preemergence; for Plant response rating, Ryegrass, Italian: 125 g ai/ha, visual injury after approximately 10 d, 0 to 100 scale where 0 is no effect and 100 is complete control; for Ryegrass, Italian plant response rating (0 to 100 scale, 0 is no effect, 100 is complete control): 500 g ai/ha, visual injury approx. 10 d
Procedure, shortened: as §1

[18] = tested on: giant foxtail (Setaria faberii); experiment: Test A preemergence; conditions: Preemergence; for Plant response rating, Foxtail, Giant: 125 g ai/ha, visual injury after approximately 10 d, 0 to 100 scale where 0 is no effect and 100 is complete control; for Foxtail, Giant plant response rating (0 to 100 scale, 0 is no effect, 100 is complete control): 500 g ai/ha, visual injury approx. 10 d
Procedure, shortened: as §1

Structure (SMILES)	Corn plant response rating (corn (Zea mays))	Plant response rating, Corn (corn (Zea mays))	Wheat plant response rating [1]	Plant response rating, Wheat [1]	Ragweed plant response rating [2]	Plant response rating, Ragweed [2]	Pigweed plant response rating [3]	Plant response rating, Pigweed [3]	Blackgrass plant response rating [4]	Plant response rating, Blackgrass [4]	Kochia plant response rating (Kochia (Kochia scoparia) [5])	Plant response rating, Kochia (Kochia (Kochia scoparia) [5])	Barnyardgrass plant response rating [6]	Plant response rating, Barnyardgrass [6]	Galium plant response rating [7]	Plant response rating, Galium [7]	Ryegrass, Italian plant response rating [8]	Plant response rating, Ryegrass, Italian [8]	Foxtail, Giant plant response rating [9]	Plant response rating, Foxtail, Giant [9]	further results
O=C1NCC(c2cc(F)cc(C(F)(F)F)c2)C1C(=O)Nc1ccc(F)cc1F (stereo not drawn) [Compound 490]	80	80	30	50	0	20	0	20	20	40	0	20	80	80	20	40	0	30	80	80	Plant response rating, Barnyardgrass [10]: 50; Plant response rating, Rice (rice (Oryra sativa)): 30; Plant response rating, Ducksalad [11]: 85; Plant response rating, Sedge, Umbrella [12]: 0; Plant response rating, Ragweed [13]: 0; Ragweed plant response rating (0 to 100 scale, 0 is no effect, 100 is complete control) [13]: 0; Plant response rating, Pigweed [14]: 0; Pigweed plant response rating (0 to 100 scale, 0 is no effect, 100 is complete control) [14]: 0; Plant response rating, Kochia (Kochia (Kochia scoparia) [15]): 0; Kochia plant response rating (0 to 100 scale, 0 is no effect, 100 is complete control) (Kochia (Kochia scoparia) [15]): 20; Plant response rating, Barnyardgrass [16]: 80; Barnyardgrass plant response rating (0 to 100 scale, 0 is no effect, 100 is complete control) [16]: 90; Plant response rating, Ryegrass, Italian [17]: 20; Ryegrass, Italian plant response rating (0 to 100 scale, 0 is no effect, 100 is complete control) [17]: 50; Plant response rating, Foxtail, Giant [18]: 90; Foxtail, Giant plant response rating (0 to 100 scale, 0 is no effect, 100 is complete control) [18]: 90
O=C1NCC(c2cc(F)cc(Cl)c2)C1C(=O)Nc1ccccc1F (stereo not drawn) [Compound 491]	60	90	30	60	0	20	0	20	20	50	0	20	90	80	0	30	0	30	80	80	Plant response rating, Barnyardgrass [10]: 0; Plant response rating, Rice (rice (Oryra sativa)): 0; Plant response rating, Ducksalad [11]: 40; Plant response rating, Sedge, Umbrella [12]: 0; Plant response rating, Ragweed [13]: 0; Ragweed plant response rating (0 to 100 scale, 0 is no effect, 100 is complete control) [13]: 0; Plant response rating, Pigweed [14]: 0; Pigweed plant response rating (0 to 100 scale, 0 is no effect, 100 is complete control) [14]: 0; Plant response rating, Kochia (Kochia (Kochia scoparia) [15]): 0; Kochia plant response rating (0 to 100 scale, 0 is no effect, 100 is complete control) (Kochia (Kochia scoparia) [15]): 20; Plant response rating, Barnyardgrass [16]: 90; Barnyardgrass plant response rating (0 to 100 scale, 0 is no effect, 100 is complete control) [16]: 90; Plant response rating, Ryegrass, Italian [17]: 20; Ryegrass, Italian plant response rating (0 to 100 scale, 0 is no effect, 100 is complete control) [17]: 30; Plant response rating, Foxtail, Giant [18]: 90; Foxtail, Giant plant response rating (0 to 100 scale, 0 is no effect, 100 is complete control) [18]: 90
O=C1NCC(c2cccc(F)c2F)C1C(=O)Nc1ccc(F)cc1F (stereo not drawn) [Compound 495]	0	30	0	20	0	0	0	0	0	20	30	30	20	80	0	0	0	20	20	70	Plant response rating, Barnyardgrass [10]: 35; Plant response rating, Rice (rice (Oryra sativa)): 0; Plant response rating, Ducksalad [11]: 75; Plant response rating, Sedge, Umbrella [12]: 0; Plant response rating, Ragweed [13]: 0; Ragweed plant response rating (0 to 100 scale, 0 is no effect, 100 is complete control) [13]: 0; Plant response rating, Pigweed [14]: 0; Pigweed plant response rating (0 to 100 scale, 0 is no effect, 100 is complete control) [14]: 20; Plant response rating, Kochia (Kochia (Kochia scoparia) [15]): 20; Kochia plant response rating (0 to 100 scale, 0 is no effect, 100 is complete control) (Kochia (Kochia scoparia) [15]): 30; Plant response rating, Barnyardgrass [16]: 30; Barnyardgrass plant response rating (0 to 100 scale, 0 is no effect, 100 is complete control) [16]: 90; Plant response rating, Ryegrass, Italian [17]: 0; Ryegrass, Italian plant response rating (0 to 100 scale, 0 is no effect, 100 is complete control) [17]: 20; Plant response rating, Foxtail, Giant [18]: 90; Foxtail, Giant plant response rating (0 to 100 scale, 0 is no effect, 100 is complete control) [18]: 90
